{"source": "ChEMBL document CHEMBL5150038", "about": "“Small-Molecule Receptor-Interacting Protein 1 (RIP1) Inhibitors as Therapeutic Agents for Multifaceted Diseases: Current Medicinal Chemistry Insights and Emerging Opportunities” (J Med Chem, 2022)", "key": {"[1]": {"assay": "Metabolic clearance in rat hepatocyte assessed as clearance measured per 10^6 cells", "type": "ADME, cell-based", "conditions": "hepatocytes, read-out: CLH"}, "Hepatocyte": {"test_system": "Hepatocyte", "assay": "Metabolic clearance in human hepatocyte assessed as clearance", "type": "ADME, cell-based", "conditions": "hepatocytes"}}}
{"smiles": "O=C(c1cnn(Cc2ccccc2)c1)N1CCOc2ccccc2C1", "values": [{"measurement": "hepatocyte CLint", "setting": "[1]", "result": 87, "unit": "µL/min/1e6 cells"}, {"measurement": "CLH", "setting": "Hepatocyte", "result": 42, "unit": "µL/min/mg"}]}
